PubChem BioAssay (NCI)
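Following 48 hours of exposure in 96-well plates, responses at five concentrations were used to interpolate endpoints linearly. At the TGI there is no net growth.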

Assays:
Assay in all cases: NCI-60 cell line screen, 48 h
786-0 renal = tested on: 786-0 renal
A549 NSCLC = tested on: A549 NSCLC
COLO 205 colon = tested on: COLO 205 colon
DU-145 prostate = tested on: DU-145 prostate
HCC-2998 colon = tested on: HCC-2998 colon
IGROV1 ovarian = tested on: IGROV1 ovarian
MCF7 breast = tested on: MCF7 breast
MDA-MB-231 breast = tested on: MDA-MB-231 breast
NCI-H522 lung = tested on: NCI-H522 lung
NCI/ADR-RES ovarian = tested on: NCI/ADR-RES ovarian
OVCAR-4 ovarian = tested on: OVCAR-4 ovarian
OVCAR-8 ovarian = tested on: OVCAR-8 ovarian
RPMI-8226 leukemia = tested on: RPMI-8226 leukemia
RXF 393 renal = tested on: RXF 393 renal
SF-539 CNS = tested on: SF-539 CNS
SK-MEL-5 melanoma = tested on: SK-MEL-5 melanoma
TK-10 renal = tested on: TK-10 renal
UACC-62 melanoma = tested on: UACC-62 melanoma
HL-60(TB) leukemia = tested on: HL-60(TB) leukemia
OVCAR-3 ovarian = tested on: OVCAR-3 ovarian

| SMILES | TGI (786-0 renal) [µM] | TGI (A549 NSCLC) [µM] | TGI (COLO 205 colon) [µM] | TGI (DU-145 prostate) [µM] | TGI (HCC-2998 colon) [µM] | TGI (IGROV1 ovarian) [µM] | TGI (MCF7 breast) [µM] | TGI (MDA-MB-231 breast) [µM] | TGI (NCI-H522 lung) [µM] | TGI (NCI/ADR-RES ovarian) [µM] | TGI (OVCAR-4 ovarian) [µM] | TGI (OVCAR-8 ovarian) [µM] | TGI (RPMI-8226 leukemia) [µM] | TGI (RXF 393 renal) [µM] | TGI (SF-539 CNS) [µM] | TGI (SK-MEL-5 melanoma) [µM] | TGI (TK-10 renal) [µM] | TGI (UACC-62 melanoma) [µM] | TGI (HL-60(TB) leukemia) [µM] | TGI (OVCAR-3 ovarian) [µM] |
| --- | --- | --- | --- | --- | --- | --- | --- | --- | --- | --- | --- | --- | --- | --- | --- | --- | --- | --- | --- | --- |
| COc1ccc([C@H]2CC(=O)C[C@H](c3ccc(OC)cc3)C23C(=O)c2ccccc2C3=O)cc1 | > 100 | > 100 | 8.32 | > 100 | 32.6 | > 100 | > 100 | > 100 | 18.6 | 7.69 | > 100 | > 100 | > 100 | 16 | 53.3 | 17.4 | > 100 | > 100 |  |  |
| O=c1ccn2n1Cc1ccccc1C2 | > 100 | > 100 | > 100 | > 100 | > 100 | > 100 |  | > 100 | > 100 | > 100 | > 100 | > 100 | > 100 | > 100 | > 100 | > 100 | > 100 | > 100 | > 100 | > 100 |
| CN1CCN(C(=S)N(C(=O)c2ccc(Cl)cc2)c2ccccc2)CC1 | > 100 | > 100 | > 100 | > 100 | > 100 | > 100 | > 100 | > 100 | > 100 |  | > 100 | > 100 | > 100 | > 100 |  | > 100 | > 100 | > 100 | > 100 | > 100 |
| O=c1cc(-c2ccccc2)[nH]c2ccc(N3CCOCC3)cc12 | 38.1 |  |  | > 32.9 | > 100 | > 100 | > 93.5 | > 100 | 0.404 | > 100 | > 100 | > 100 | > 100 | 46.5 | 0.615 | 14.3 | > 100 | > 100 |  | 39.2 |
| O=C(NNC(=S)Nc1ccccc1)c1cc(-c2ccccc2)nc2ccccc12 | 30 | 41.2 | 36.8 | 39.1 | 30.5 | > 100 | 60.8 | 52.5 | 52.6 | 52.1 | 56.2 | 57.6 | 44.9 | 46.4 | 38.7 | 27 | > 100 | 39.1 |  | 24.4 |
| O=C1N=C(SC(SC2=NC(=O)C3(NN2)c2ccccc2-c2ccccc23)=C(SC2=NC(=O)C3(NN2)c2ccccc2-c2ccccc23)SC2=NC(=O)C3(NN2)c2ccccc2-c2ccccc23)NNC12c1ccccc1-c1ccccc12 | > 10 | > 10 | > 10 | > 10 | > 10 | > 10 | > 10 | > 10 | > 10 | > 10 | > 10 | > 10 | > 10 | > 10 | > 10 | > 10 | > 10 | > 10 |  |  |
| O=c1[nH]nc(-c2ccccc2)n1Nc1ccccc1 | > 100 | > 100 | > 100 | > 100 | > 100 | > 100 |  | > 100 | > 100 | > 100 | > 100 | > 100 | > 100 | > 100 | > 100 | > 100 | > 100 | > 100 | > 100 | > 100 |
| CCCCCC(C/C=N/N(C)C)C(O)(C(F)(F)F)C(F)(F)F (stereo not given) | > 100 | > 100 | 30.5 | > 100 | > 100 | 74.5 |  | 70.6 | > 100 | > 100 | > 100 | > 100 | 60.4 | 76.3 | 82.7 | 30.7 | > 100 | > 100 | 31.6 | 66.1 |
| CC(Cc1ccccc1)Nc1ncnc2c1ncn2C1OC(CO)CC1O (stereo not given) | > 100 | > 100 | > 100 | > 100 | > 100 | > 100 | > 100 | > 100 | > 100 | > 100 | > 100 | > 100 | > 100 | > 100 |  | > 100 | > 100 | > 100 |  | > 100 |
